From patent US20230075856A1, “CYCLIC SULFAMIDE COMPOUNDS FOR TREATMENT OF HBV” (Assembly Biosciences, Inc., priority 2018, published 2023) come the findings set out here.

pEC50: −log10 of the molar value.

For orientation: pEC50 means the negative decadic logarithm of the EC50, by convention in mol/L.

One test has as its system HBV viral load production from HepAD38 cells. Briefly: Viral production from HepAD38 cells: viral load in supernatant by qPCR of the HBV core sequence. The settings on record: 5 days incubation, qPCR of supernatant HBV DNA vs DMSO control, read-out: viral load lowering EC50 (Activity). It is filed as cell-based. A digest of the protocol: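 HepAD38 cells seeded at 50,000/well in tetracycline-free medium with 2% FBS, treated with compounds (final top concentration 10 μM) for 5 days at 37 °C. Supernatant HBV DNA quantified by TaqMan qPCR of core sequence against HBV DNA standards, relative to DMSO controls; EC50 by four-parameter logistic fit.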
With `COc1ccccc1-c1ncc(CNC(=O)C2CC(C(=O)Nc3ccc(F)c(Cl)c3)N(C)S(=O)(=O)N2)s1` (single isomer, unassigned) [Compound 987-ISOMER-B, N3-(3-chloro-4-fluoro-phenyl)-N5-[[2-(2-methoxyphenyl)thiazol-5-yl]methyl]-2-methyl-1,1-dioxo-1,2,6-thiadiazinane-3,5-dicarboxamide], the pEC50 is 5.00 to 7.00.
In the case of `CN1C(C(=O)Nc2ccc(F)c(Cl)c2)CC(C(=O)NC2CCN(c3ccnc(-c4ccccc4)c3)CC2)NS1(=O)=O` (single isomer, unassigned) [1050-ISOMER-B, N3-(3-chloro-4-fluoro-phenyl)-2-methyl-1,1-dioxo-N5-[1-(2-phenyl-4-pyridyl)-4-piperidyl]-1,2,6-thiadiazinane-3,5-dicarboxamide], the pEC50 was over 7.30.
On the same count and under the same terms, the value for `CN1C(C(=O)Nc2ccc(F)c(Cl)c2)CC(C(=O)NCc2ccccc2)NS1(=O)=O` (single isomer, unassigned) [Compound 718-ISOMER-B, N5-benzyl-N3-(3-chloro-4-fluorophenyl)-2-methyl-1,1-dioxo-1,2,6-thiadiazinane-3,5-dicarboxamide] was 5.00 to 7.00; that for `CN1C(C(=O)Nc2ccc(F)c(Cl)c2)CC(C(=O)NCc2cnc(-c3ccccc3)s2)NS1(=O)=O` (single isomer, unassigned) [Compound 691-ISOMER-B, N3-(3-chloro-4-fluoro-phenyl)-2-methyl-1,1-dioxo-N5-[(2-phenylthiazol-5-yl)methyl]-1,2,6-thiadiazinane-3,5-dicarboxamide] was over 7.30; that for `CN1C(C(=O)Nc2ccc(F)c(Cl)c2)CC(C(=O)NCc2ncc(-c3ccccc3)s2)NS1(=O)=O` (single isomer, unassigned) [Compound 931-ISOMER-B, N3-(3-chloro-4-fluoro-phenyl)-2-methyl-1,1-dioxo-N5-[(5-phenylthiazol-2-yl)methyl]-1,2,6-thiadiazinane-3,5-dicarboxamide] was over 7.30.

Still in this test, the particulars now being: Hepatitis B virus, HePAD38, 120 h, 5 days incubation, qPCR of supernatant HBV DNA vs DMSO control, read-out: viral load lowering EC50 (Activity).
As to `CN1C(C(=O)Nc2ccc(F)c(Cl)c2)CC(C(=O)NCc2cnc(-n3ccnn3)s2)NS1(=O)=O` (centres unmarked) [Compound 1158], the pEC50 is over 7.30.
In the case of `CN1C(C(=O)Nc2ccc(F)c(Cl)c2)CC(C(=O)N[C@H]2CCN(c3ccnc(Cl)c3)C2)NS1(=O)=O` (single isomer, unassigned) [1055-S-ISOMER-A], the pEC50 is 5.00 to 7.00.
For the compound `CN1C(C(=O)Nc2ccc(F)c(Cl)c2)CC(C(=O)NCc2cnc(-c3cscn3)s2)NS1(=O)=O` (centres unmarked) [Compound 929], the negative-log EC50 (pEC50) is over 7.30.
With `COc1ccc(CNC(=O)C2CC(C(=O)Nc3ccc(F)c(C#N)c3)N(C)S(=O)(=O)N2)cc1` (centres unmarked) [Compound 832], the pEC50 was 7.00 to 7.30.
`CN1C(C(=O)Nc2ccc(F)c(Cl)c2)CC(C(=O)NC2CCN(C(=O)C3CC3)CC2)NS1(=O)=O` (centres unmarked) [Compound 854]: the pEC50 was over 7.30.
Regarding `CN1C(C(=O)Nc2ccc(F)c(Cl)c2)CC(C(=O)Nc2cccnc2)NS1(=O)=O` (centres unmarked) [Compound 708], the pEC50 was 5.00 to 7.00.
Turning to `COc1ccc2nc(CNC(=O)C3CC(C(=O)Nc4ccc(F)c(Cl)c4)N(C)S(=O)(=O)N3)sc2c1` (centres unmarked) [Compound 1011], the pEC50 was over 7.30.
`CN1C(C(=O)Nc2ccc(F)c(Cl)c2)CC(C(=O)NC2CCN(C(=O)OC(C)(C)C)CC2)NS1(=O)=O` (centres unmarked) [Compound 767]: the pEC50 is over 7.30.
As for `CN1C(C(=O)Nc2ccc(F)c(Cl)c2)CC(C(=O)NCc2cnc(Cl)s2)NS1(=O)=O` (single isomer, unassigned) [1199-ISOMER-A, N3-(3-chloro-4-fluoro-phenyl)-N5-[(2-chlorothiazol-5-yl)methyl]-2-methyl-1,1-dioxo-1,2,6-thiadiazinane-3,5-dicarboxamide], the pEC50 is over 7.30.
Still for that read-out and setting: the value for `CN1C(C(=O)Nc2ccc(F)c(Cl)c2)CC(C(=O)N[C@@H](c2ccccc2)c2cnc(-c3ccccc3)s2)NS1(=O)=O` (single isomer, unassigned) [1067-ISOMER-D] was 5.00 to 7.00.
For `CN1C(C(=O)Nc2ccc(F)c(Cl)c2)CC(C(=O)NCc2cnc(N)s2)NS1(=O)=O` (single isomer, unassigned) [1132-ISOMER-A, N5-[(2-aminothiazol-5-yl)methyl]-N3-(3-chloro-4-fluoro-phenyl)-2-methyl-1,1-dioxo-1,2,6-thiadiazinane-3,5-dicarboxamide], the pEC50 was 7.00 to 7.30.
As for `CN1C(C(=O)Nc2ccc(F)c(Cl)c2)CC(C(=O)NC(c2ccccc2)c2ccccc2)NS1(=O)=O` (single isomer, unassigned) [1014-ISOMER-A, N5-benzhydryl-N3-(3-Chloro-4-fluoro-phenyl)-2-methyl-1,1-dioxo-1,2,6-thiadiazinane-3,5-dicarboxamide], the pEC50 was over 7.30.
Still for that read-out and setting: the value for `Cc1cc(CNC(=O)C2CC(C(=O)Nc3ccc(F)c(Cl)c3)N(C)S(=O)(=O)N2)n(C)n1` (single isomer, unassigned) [Compound 482-ISOMER-A, N3-(3-chloro-4-fluoro-phenyl)-N5-[(2,5-dimethylpyrazol-3-yl)methyl]-2-methyl-1,1-dioxo-1,2,6-thiadiazinane-3,5-dicarboxamide] was over 7.30; that for `COc1cccc(CNC(=O)C2CC(C(=O)Nc3ccc(F)c(Cl)c3)N(C)S(=O)(=O)N2)c1` (single isomer, unassigned) [Compound 721-ISOMER-A, N3-(3-chloro-4-fluoro-phenyl)-N5-[(3-methoxyphenyl)methyl]-2-methyl-1,1-dioxo-1,2,6-thiadiazinane-3,5-dicarboxamide] was over 7.30.
Regarding `CN1C(C(=O)Nc2ccc(F)c(Cl)c2)CC(C(=O)NCc2ccc(Cl)cc2)NS1(=O)=O` (single isomer, unassigned) [Compound 729-ISOMER-A, N3-(3-chloro-4-fluoro-phenyl)-N5-[(4-chlorophenyl)methyl]-2-methyl-1,1-dioxo-1,2,6-thiadiazinane-3,5-dicarboxamide], the pEC50 is over 7.30.
In the case of `Cc1nc(-c2ccccc2F)sc1CNC(=O)C1CC(C(=O)Nc2ccc(F)c(Cl)c2)N(C)S(=O)(=O)N1` (single isomer, unassigned) [1016-ISOMER-B, N3-(3-chloro-4-fluoro-phenyl)-N5-[[2-(2-fluorophenyl)-4-methyl-thiazol-5-yl]methyl]-2-methyl-1,1-dioxo-1,2,6-thiadiazinane-3,5-dicarboxamide], the pEC50 is 7.00 to 7.30.
In the case of `CN1C(C(=O)Nc2ccc(F)c(Cl)c2)CC(C(=O)NCc2nccs2)NS1(=O)=O` (centres unmarked) [Compound 684], the pEC50 is 5.00 to 7.00.
`CN1C(C(=O)Nc2ccc(F)c(Cl)c2)CC(C(=O)NCc2ccc(S(N)(=O)=O)s2)NS1(=O)=O` (centres unmarked) [Compound 682]: the pEC50 is 5.00 to 7.00.
For the compound `CN1C(C(=O)Nc2ccc(F)c(Cl)c2)CC(C(=O)NCc2cnc(-c3ccccc3)s2)NS1(=O)=O` (centres unmarked) [Compound 691], the pEC50 is over 7.30.
`CC(C)OC1CCC(NC(=O)C2CC(C(=O)Nc3ccc(F)c(Cl)c3)N(C)S(=O)(=O)N2)CC1` (single isomer, unassigned) [Compound 862-ISOMER-A, N3-(3-chloro-4-fluoro-phenyl)-N5-(4-isopropoxycyclohexyl)-2-methyl-1,1-dioxo-1,2,6-thiadiazinane-3,5-dicarboxamide]: the pEC50 is 5.00 to 7.00.
As to `CN1C(C(=O)Nc2ccc(F)c(Cl)c2)CC(C(=O)NCc2cnc(Cl)s2)NS1(=O)=O` (centres unmarked) [Compound 1199], the pEC50 was over 7.30.
